Tested on: cough of guinea pigs induced by citric acid
Assay: citric acid induced guinea pig cough model
Format: in vivo, Hartley guinea pigs
Conditions: for Cough Time (Number of Times) / Cough Incubation Period: once daily for 3 days, x±s, n=8; for Cough Time (Number of Times): cough times within 6 min after citric acid atomization; for Cough Incubation Period: within 6 min after citric acid atomization; for Antitussive Ratio: (N(blank control)-N(administration group))/N(blank control)x100%
Procedure: Experimental animals: 250-350 g of common level Hartley guinea pigs, including half males and half females are provided by Guangdong Medical Experimental Animal Center, wherein the number of the animal certificate is SCXK (Yue) 2008-0002.
Reagents and instruments: citric acid monohydrate (Guangzhou Chemical Reagent Factory, batch number: 20121001-2), wherein 0.8 M of citric acid solution is prepared by adding normal saline into citric acid monohydrate when in use; an animal noninvasive Buxco lung function detecting system (Buxco Company of America); an Aeroneb Pro atomizer (Aerogen (Ireland) Co., Ltd.); and a gavage needle (Guangdong Medical Experimental Animal Center).
A citric acid induced guinea pig cough model is adopted for efficacy evaluation. 112 Hartley guinea pigs are put in a 6 L plethysmograph of the animal noninvasive Buxco lung function detecting system one by one; the air velocity of a drift indicator is 2.5 L/min; 0.8 M of atomized aerosol of citric acid ultrapure aqueous solution is led for 1 min by the Aeroneb Pro atomizer; the average diameter of the atomized granules is […]; observation is carried out for 5 min; the sound of cough is recorded and amplified by an indoor microphone; sound waves are analyzed by Biosystem XA software; and computer software is used for processing sound data and recording cough situations. A trained observer observes whether a cough response exists or not, records the cough times within 6 min since atomization and selects the guinea pigs with more than 10 cough times as qualified animals for tests.
56 Hartley guinea pigs qualified by screening, including half males and half females, are randomly divided into 7 groups; 1 mL/100 g of normal saline is provided to a blank control group; a corresponding solvent (Tween-80 aqueous solution with 5% volume concentration) with equal volume is provided to a solvent group; 30 mg/kg of codeine phosphate with equal volume is provided to a positive drug group, asarinin (30 mg/kg, 60 mg/kg and 120 mg/kg of samples in embodiment 1) and total volatile oil of asarum (200 mg/kg of samples in embodiment 1) with equal volume are provided to each of administration groups; administration is carried out one time every day for successive 3 days. A citric acid atomization simulation test is carried out in the animal noninvasive Buxco lung function detecting system within 2 h after last administration (atomization conditions are described above); the cough times (N) and the cough incubation periods within 6 min are recorded; and the antitussive ratios of all the administration groups are calculated by a formula: antitussive ratio=(N(blank control)−N(administration group))/N(blank control)×100%.
The data are expressed by x±s, and a one-way analysis of variance is carried out on parameters of all the groups by IBM SPSS Statistics 19.0 software.

Row | Compound | Cough Time (Number of Times) (30 mg/kg) | Cough Incubation Period (30 mg/kg) | Antitussive Ratio (30 mg/kg) | Cough Time (Number of Times) (60 mg/kg) | Cough Incubation Period (60 mg/kg) | Antitussive Ratio (60 mg/kg) | Cough Time (Number of Times) (120 mg/kg) | Cough Incubation Period (120 mg/kg) | Antitussive Ratio (120 mg/kg)
1 | c1cc2c(cc1C1OCC3C1CO[C@H]3c1ccc3c(c1)OCO3)OCO2 (stereo in doubt) [Asarinin, 5,5′-[(1R,3aR,4S,6aR)-tetrahydro-1H,3H-furo[3,4-c]furan-1,4-diyl]bis-1,3-Benzodioxole] | 16.3 ± 2.2 Number of Times | 98.5 ± 9.5 S | 39.2% | 13.2 ± 2.1 Number of Times | 94.2 ± 13.6 S | 50.7% | 12.6 ± 1.9 Number of Times | 127.3 ± 24.8 S | 53.0%
2 | COc1ccc2c3c1O[C@H]1[C@@H](O)C=C[C@H]4[C@@H](C2)N(C)CC[C@@]341 [Codeine Phosphate, reference compound] | 12.0 ± 2.3 Number of Times | 130.0 ± 32.4 S | 55.2% | – | – | – | – | – | –
